# Laboratory results taken from paper PMC6926618, “Modification of Polyacrylonitrile Fibers by Coupling to Thiosemicarbazones” (Materials, 2019).
# pIC50: −log10 of the molar value. Several values for one entry are separate records, joined by “and”; a condition that tells them apart may be missing. Equal entries are not always repeated. Where two headings read alike, the source gives them in different places.
# Legend:
# [1] = tested on: A549 cells; experiment: MTT cytotoxicity assay; type: cell-based; details: for Concentration of Compounds When 80% of Cells Survive: 48 h co-culture
# Procedure: The cytotoxic effect of compounds was determined by using in vitro colorimetric MTT assay. The A549 cells were seeded into 96-well microtiter tissue culture plates with a final volume of 100 μL. After attachment for 24 h, the cells were treated with different concentrations (0.1, 1, 10, 50, and 100 μM) of thiosemicarbazone compounds in the culture medium. Eight replicate wells per concentration were used and all experiments were repeated in triplicate. The solvent control (DMSO) was also assayed in parallel. The cells were incubated for 24 h and 48 h with compounds. Then, MTT dye was added 4 h before the completion of the incubation periods. The resulting formazan crystals were separated from the medium and then dissolved in 100 μL DMSO. The absorbance at 490 nm was used to quantify the plates using ELx808 Absorbance Microplate Reader (Bio-Tek, Winooski, USA).
# [2] = tested on: B. subtilis; experiment: Antibacterial test on plates (zones of inhibition); type: cell-based; details: 20 g/L and 10 g/L on plates, Figure 11
# [3] = Potentiometric titration, stability constant of complex with Cu^2+; type: physicochemical; details: 25 °C, water with 20% DMSO, KNO3
# Procedure: (§1) The stability constant of the complex was tested using a Metrohm 877 Titrino plus automatic potentiometric titrator (Metrohm, Herisau, Switzerland). The titration temperature was maintained at 25 ± 0.5 °C with pH range of 2–11. The titration solution was water solution with 20% DMSO, and the ionic strength I = […] KNO3 (aq). The initial concentration was [L] = 0.005–0.0001 mol·L^−1, [HNO3] = 0.002 mol·L^−1, [KNO3] = 0.10 mol·L^−1, and [M] = 0.0001 mol·L^−1. The total volume was 25 mL, the titration volume was 0.004 mL·D^−1, and the response time was at least 1 min. The titration was triplicate and the titration data were fitted using Hyperquad 2013 software, where the ion product of H2O was pKw = 13.85 [18]. The distribution curve of species with pH was plotted using HySS 2009 software (Version 2009, Hyperquad Co. Ltd., London, UK). Three metal ions, Cu^2+, Zn^2+, and Mn^2+, were chosen as model ions in this work. The stability constants of the thiosemicarbazone compounds forming complexes with the above three metal ions and the species distribution under different pH conditions were investigated in detail.
# [4] = molecular target: tyrosinase; experiment: Tyrosinase activity analysis (L-DOPA oxidation, spectrophotometry at 475 nm); type: biochemical
# Procedure: Tyrosinase activity was determined by spectrophotometry, as 3,4-dihydroxyphenylalanine (L-DOPA, Sigma) oxidation activity, with a modification of a reported method. In brief, the tyrosinase solution (50 µL) was gently added to 450 µL of phosphate buffer at a concentration of 0.05 M containing 50 µM samples. The pH of the solution was maintained at 6.8. Then, the mixture was incubated at 30 °C for 10 min and 500 µL of 5 mM L-DOPA solution was added. […] This intensity of the peaks was recorded based on time. The tyrosinase activity was analyzed from the initial rate. The buffer containing 1% DMSO was used as a control sample. The inhibition rate of the test solution against tyrosinase was calculated using the corresponding negative control as a reference, and an approximation of the half-inhibitory concentration (IC50) was estimated based on the concentration-enzyme inhibition rate curve.
# [5] = tested on: E. coli; experiment: Antibacterial test on plates (zones of inhibition); type: cell-based; details: 20 g/L and 10 g/L on plates, Figure 11a
# [6] = Potentiometric titration, stability constant of complex with Zn^2+; type: physicochemical; details: 25 °C, water with 20% DMSO, KNO3
# Procedure: as §1
# [7] = tested on: S. aureus; experiment: Antibacterial test on plates (zones of inhibition); type: cell-based; details: for antibacterial activity on S. aureus (zones of inhibition): 20 g/L and 10 g/L on plates, Figure 11; for Concentration (bacteriostatic effect), S. aureus: Table 7, Figure 12
# [8] = Potentiometric titration, stability constant of complex with Mn^2+; type: physicochemical; details: 25 °C, water with 20% DMSO, KNO3
# Procedure: as §1
# [9] = tested on: S. aureus; experiment: Antibacterial test GB/T20944.3-2008, colony count, inhibition rate; type: cell-based; details: Staphylococcus aureus, DY6 at 1.0 µM vs control sample, read-out: inhibition effect (colony-forming bacterial units)
# Procedure: Antibacterial performance against bacteria (E. coli, S. aureus, and B. subtilis) was determined according to GB/T20944.3-2008. The inoculation suspension of bacteria was prepared and the inoculation loop was used to conduct the bacterial inoculation on the agar board for 18–24 h at 37 ± 1 °C. The sample was dipped into the conical flask filled with experimental bacteria solution with a certain concentration. After that, the oscillation culture is conducted to the samples for specified time, and 1 mL of solution was taken, diluted and distributed onto an agar plate. All plates were incubated at 37 °C for 24 h and the colonies formed were counted. […] Qt is the bacteria-colony number of viable bacteria in the plate after antibacterial treatment or grafted PAN fibers.
# Figure 13 Antibacterial effect against S. aureus: (a) control sample; (b) after treatment with DY6 ay the concentration of 1.0 µM; (c) original PAN fibers; and (d) grafted DY6–PAN fibers.
# [10] = L-DOPA substrate, pH 6.8, 30 °C, approximation from concentration-inhibition curve, read-out: IC50 (semi-inhibitory concentration of tyrosinase)
SMILES,"logKCu^2+, n = 1 [3]","pIC50 [4, 10]","logKZn^2+, n = 1 [6]","logKMn^2+, n = 1 [8]",effective concentration (A549 cell survival rate maintained above 80%) [1],Concentration of Compounds When 80% of Cells Survive [1],antibacterial activity on B. subtilis (zones of inhibition) [2],antibacterial effect on E. coli [5],antibacterial activity on S. aureus (zones of inhibition) [7],"Concentration (bacteriostatic effect), S. aureus [7]",inhibition at 1 µM [9],"pIC50 ([4]; L-DOPA method, blank control 1% DMSO, read-out: IC50 (semi-inhibitory curve, Figure 3))"
NC(=S)N/N=C/c1cc([N+](=O)[O-])ccc1O [DY3],19.10 ± 0.15 M^−1,5.01,13.69 ± 0.12 M^−1,14.48 ± 0.11 M^−1,50 µM,<50 µM,,,,,,
NC(=S)N/N=C/c1ccc2c(c1)OCCO2 [DY7],,4.39,,,50 µM,<50 µM,,,,,,
CCN(CC)c1ccc(/C=N/NC(N)=S)c(O)c1 [DY6],20.15 M^−1 and 20.15 ± 0.14 M^−1,6.22,14.07 M^−1 and 14.07 ± 0.37 M^−1,14.37 M^−1 and 14.37 ± 0.30 M^−1,up to 100 μM,<100 µM,good antibacterial activities,do not have an antibacterial effect,good antibacterial activities,0.02 µM,88.6%,6.22
COc1ccc(/C=N/NC(N)=S)c(O)c1 [DY4],18.95 ± 0.10 M^−1,5.95,13.56 ± 0.17 M^−1,14.01 ± 0.08 M^−1,up to 100 μM,<100 µM,good antibacterial activities,do not have an antibacterial effect,good antibacterial activities,,,

# More lines, main results first:
"logKCu^2+, n = 1 [3]","pIC50 [4, 10]","logKZn^2+, n = 1 [6]","logKMn^2+, n = 1 [8]",SMILES,effective concentration (A549 cell survival rate maintained above 80%) [1],Concentration of Compounds When 80% of Cells Survive [1],antibacterial activity on B. subtilis (zones of inhibition) [2],antibacterial effect on E. coli [5],antibacterial activity on S. aureus (zones of inhibition) [7],"Concentration (bacteriostatic effect), S. aureus [7]",inhibition at 1 µM [9],"pIC50 ([4]; L-DOPA method, blank control 1% DMSO, read-out: IC50 (semi-inhibitory curve, Figure 3))"
19.15 ± 0.11 M^−1,5.73,13.13 ± 0.21 M^−1,13.67 ± 0.31 M^−1,Cc1ccc(O)c(/C=N/NC(N)=S)c1 [DY1],up to 100 μM,<100 µM,good antibacterial activities,do not have an antibacterial effect,good antibacterial activities,0.02 µM,,
19.43 ± 0.22 M^−1,5.77,12.51 ± 0.20 M^−1,13.65 ± 0.16 M^−1,NC(=S)N/N=C/c1cc(Cl)ccc1O [DY5],50 µM,<50 µM,good antibacterial activities,do not have an antibacterial effect,good antibacterial activities,,,
18.83 ± 0.14 M^−1,,13.53 ± 0.11 M^−1,14.27 ± 0.17 M^−1,NC(=S)N/N=C/c1cc(O)ccc1O [DY2],,,,,,,,
